These are literature values, as cited in patent US9925191B2, “Fumarate compounds, pharmaceutical compositions thereof, and methods of use” (priority 2015, dated 2018).

As to `COC(=O)/C=C/C(=O)OC` [DMF, dimethylfumarate], the aqueous solubility entry is “poor aqueous solubility”.
